The supplement of paper PMC10627819

Assays:
Test in all cases: fitness (endpoint OD595 vs no drug) (fraction); higher = more growth
S. aureus DSM 20231 = test system: S. aureus DSM 20231
Summary of the method: (§1)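 Plates with 384 wells were inoculated at OD595 0.01 using 30 µl of TSB, LB Lennox or CY, or 55 µl for S. pneumoniae. Incubation was at 37 °C, with OD595 measured every 30 min for 14 h. Fitness is the stationary-phase transition optical density over the robust mean of no-drug control wells, after first-reading background subtraction; it is capped at 1.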

B. subtilis 168 = test system: B. subtilis 168
Summary of the method: as §1

S. pneumoniae D39V = test system: S. pneumoniae D39V
Summary of the method: as §1

CN(C)[C@@H]1C(O)=C(C(N)=O)C(=O)[C@@]2(O)C(O)=C3C(=O)c4c(O)ccc(Cl)c4[C@@](C)(O)[C@H]3C[C@@H]12 [Chlortetracycline] + CO/N=C(\C(=O)N[C@@H]1C(=O)N2C(C(=O)O)=C(COC(C)=O)CS[C@H]12)c1csc(N)n1 [Cefotaxime]
fitness, one replicate
Conditions | partner 0.00775 µg/mL | partner 0.0155 µg/mL | partner 0.031 µg/mL | partner 0.039 µg/mL | partner 0.0625 µg/mL | partner 0.078 µg/mL | partner 0.125 µg/mL | partner 0.156 µg/mL | partner 0.25 µg/mL | partner 0.312 µg/mL
B. subtilis 168, first compound 0.0475 µg/mL | 0.783 | 0.597 | 0.5 | – | 0.532 | – | 0.381 | – | 0.326 | –
B. subtilis 168, first compound 0.095 µg/mL | 0.703 | 0.536 | 0.38 | – | 0.458 | – | 0.283 | – | 0.186 | –
B. subtilis 168, first compound 0.19 µg/mL | 0.413 | 0.149 | 0.0377 | – | 0.135 | – | 0.0644 | – | 0.06 | –
S. aureus DSM 20231, first compound 0.006 µg/mL | – | – | – | 0.775 | – | 0.689 | – | 0.677 | – | 0.635

Conditions | fitness
B. subtilis 168, first compound 0.0475 µg/mL, partner 0.5 µg/mL | 0.326
B. subtilis 168, first compound 0.0475 µg/mL, partner 1 µg/mL | 0.19
B. subtilis 168, first compound 0.0475 µg/mL, partner 2 µg/mL | 0.147
B. subtilis 168, first compound 0.095 µg/mL, partner 0.5 µg/mL | 0.199
B. subtilis 168, first compound 0.095 µg/mL, partner 1 µg/mL | 0.0513
B. subtilis 168, first compound 0.095 µg/mL, partner 2 µg/mL | 0.117
B. subtilis 168, first compound 0.19 µg/mL, partner 0.5 µg/mL | 0.129
B. subtilis 168, first compound 0.19 µg/mL, partner 1 µg/mL | 0.0806
B. subtilis 168, first compound 0.19 µg/mL, partner 2 µg/mL | 0.111
S. aureus DSM 20231, first compound 0.012 µg/mL, partner 0.039 µg/mL | 0.533
S. aureus DSM 20231, first compound 0.012 µg/mL, partner 0.078 µg/mL | 0.608
S. aureus DSM 20231, first compound 0.012 µg/mL, partner 0.156 µg/mL | 0.561
S. aureus DSM 20231, first compound 0.012 µg/mL, partner 0.312 µg/mL | 0.44
S. aureus DSM 20231, first compound 0.024 µg/mL, partner 0.312 µg/mL | 0.271
S. aureus DSM 20231, first compound 0.048 µg/mL, partner 0.039 µg/mL | 0.258
S. aureus DSM 20231, first compound 0.048 µg/mL, partner 0.078 µg/mL | 0.137
S. aureus DSM 20231, first compound 0.048 µg/mL, partner 0.156 µg/mL | 0.125
S. aureus DSM 20231, first compound 0.048 µg/mL, partner 0.312 µg/mL | 0.108
S. pneumoniae D39V, first compound 0.012 µg/mL, partner 0.0018 µg/mL | 0.88
S. pneumoniae D39V, first compound 0.012 µg/mL, partner 0.0035 µg/mL | 0.94
S. pneumoniae D39V, first compound 0.012 µg/mL, partner 0.007 µg/mL | 0.885
S. pneumoniae D39V, first compound 0.024 µg/mL, partner 0.0018 µg/mL | 0.664
S. pneumoniae D39V, first compound 0.024 µg/mL, partner 0.0035 µg/mL | 0.641
S. pneumoniae D39V, first compound 0.024 µg/mL, partner 0.007 µg/mL | 0.629
S. pneumoniae D39V, first compound 0.048 µg/mL, partner 0.0018 µg/mL | 0.301
S. pneumoniae D39V, first compound 0.048 µg/mL, partner 0.0035 µg/mL | 0.251
S. pneumoniae D39V, first compound 0.048 µg/mL, partner 0.007 µg/mL | 0.238
S. pneumoniae D39V, first compound 0.375 µg/mL, partner 0.0018 µg/mL | 0.0683
S. pneumoniae D39V, first compound 0.375 µg/mL, partner 0.0035 µg/mL | 0.0612
S. pneumoniae D39V, first compound 0.375 µg/mL, partner 0.007 µg/mL | 0.0585
S. pneumoniae D39V, first compound 0.75 µg/mL, partner 0.0018 µg/mL | 0.086
S. pneumoniae D39V, first compound 0.75 µg/mL, partner 0.0035 µg/mL | 0.0734
S. pneumoniae D39V, first compound 0.75 µg/mL, partner 0.007 µg/mL | 0.0886
S. pneumoniae D39V, first compound 1.5 µg/mL, partner 0.0018 µg/mL | 0.0498
S. pneumoniae D39V, first compound 1.5 µg/mL, partner 0.0035 µg/mL | 0.0657
S. pneumoniae D39V, first compound 1.5 µg/mL, partner 0.007 µg/mL | 0.0651

CN(C)[C@@H]1C(O)=C(C(N)=O)C(=O)[C@@]2(O)C(O)=C3C(=O)c4c(O)ccc(Cl)c4[C@@](C)(O)[C@H]3C[C@@H]12 [Chlortetracycline] + CO/N=C(\C(=O)N[C@@H]1C(=O)N2C(C(=O)[O-])=C(C[N+]3(C)CCCC3)CS[C@H]12)c1csc(N)n1 [Cefepime]
S. aureus DSM 20231, first compound 0.006 µg/mL, one replicate
Conditions | fitness
partner 0.125 µg/mL | 0.792
partner 0.25 µg/mL | 0.774
partner 0.5 µg/mL | 0.722

Conditions | fitness
S. aureus DSM 20231, first compound 0.012 µg/mL, partner 0.125 µg/mL | 0.63
S. aureus DSM 20231, first compound 0.012 µg/mL, partner 0.25 µg/mL | 0.617
S. aureus DSM 20231, first compound 0.012 µg/mL, partner 0.5 µg/mL | 0.636
S. aureus DSM 20231, first compound 0.024 µg/mL, partner 0.125 µg/mL | 0.388
S. aureus DSM 20231, first compound 0.048 µg/mL, partner 0.125 µg/mL | 0.274
S. aureus DSM 20231, first compound 0.048 µg/mL, partner 0.25 µg/mL | 0.304
S. aureus DSM 20231, first compound 0.048 µg/mL, partner 0.5 µg/mL | 0.274
S. pneumoniae D39V, first compound 0.012 µg/mL, partner 0.007 µg/mL | 0.964
S. pneumoniae D39V, first compound 0.012 µg/mL, partner 0.014 µg/mL | 0.949
S. pneumoniae D39V, first compound 0.012 µg/mL, partner 0.028 µg/mL | 0.836
S. pneumoniae D39V, first compound 0.024 µg/mL, partner 0.007 µg/mL | 0.936
S. pneumoniae D39V, first compound 0.024 µg/mL, partner 0.014 µg/mL | 0.86
S. pneumoniae D39V, first compound 0.024 µg/mL, partner 0.028 µg/mL | 0.811
S. pneumoniae D39V, first compound 0.048 µg/mL, partner 0.007 µg/mL | 0.659
S. pneumoniae D39V, first compound 0.048 µg/mL, partner 0.014 µg/mL | 0.661
S. pneumoniae D39V, first compound 0.048 µg/mL, partner 0.028 µg/mL | 0.693
S. pneumoniae D39V, first compound 0.375 µg/mL, partner 0.0078 µg/mL | 0.0772
S. pneumoniae D39V, first compound 0.375 µg/mL, partner 0.0155 µg/mL | 0.049
S. pneumoniae D39V, first compound 0.375 µg/mL, partner 0.031 µg/mL | 0.0797
S. pneumoniae D39V, first compound 0.75 µg/mL, partner 0.0078 µg/mL | 0.0925
S. pneumoniae D39V, first compound 0.75 µg/mL, partner 0.0155 µg/mL | 0.0687
S. pneumoniae D39V, first compound 0.75 µg/mL, partner 0.031 µg/mL | 0.0749
S. pneumoniae D39V, first compound 1.5 µg/mL, partner 0.0078 µg/mL | 0.0695
S. pneumoniae D39V, first compound 1.5 µg/mL, partner 0.0155 µg/mL | 0.0769
S. pneumoniae D39V, first compound 1.5 µg/mL, partner 0.031 µg/mL | 0.0751
